Source: publication PMC4724314 (European journal of medicinal chemistry, 2015)
Where a name gives a salt, the structure may show the parent alone.

Columns and labels:
IDO1 [1] = molecular target: T1, IDO1 (Homo sapiens, UniProt P14902); experiment: Recombinant human IDO1 enzyme inhibition assay; type: biochemical; details: for ligand efficiency: LE=1.37*pKi/number of heavy atoms; for mode of inhibition: Lineweaver-Burk graphical analysis
catalase = experiment: Catalase inhibition; type: biochemical; details: catalase IC50 relative to IDO1 IC50
HeLa cells = experiment: Cell viability; type: cell-based, human; details: up to concentrations of 100 μM
human serum protein = experiment: Impact of human serum protein binding on inhibitory activity; type: in vitro ADME
IDO1 [2] = molecular target: T1, IDO1; experiment: UV-Vis absorption spectroscopy of inhibitor binding to IDO1; details: 500 μM inhibitor; for effect of inhibitor on CO-bound ferrous IDO1: CO as surrogate for O2; for Soret band of deoxy ferrous IDO1 on inhibitor binding: without inhibitor 427 nm

T1 sequence (P14902 whole entry): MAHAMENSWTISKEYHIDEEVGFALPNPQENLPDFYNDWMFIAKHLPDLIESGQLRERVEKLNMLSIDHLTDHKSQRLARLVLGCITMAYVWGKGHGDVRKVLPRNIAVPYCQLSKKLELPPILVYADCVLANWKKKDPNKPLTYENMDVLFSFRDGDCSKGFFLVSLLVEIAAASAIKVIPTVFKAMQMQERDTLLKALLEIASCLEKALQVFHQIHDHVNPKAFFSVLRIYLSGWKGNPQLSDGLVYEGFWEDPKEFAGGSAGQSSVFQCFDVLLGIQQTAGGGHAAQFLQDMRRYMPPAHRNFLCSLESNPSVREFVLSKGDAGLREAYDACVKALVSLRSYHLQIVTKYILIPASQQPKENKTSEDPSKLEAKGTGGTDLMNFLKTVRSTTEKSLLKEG
Sequence of catalase (P00432 2-527): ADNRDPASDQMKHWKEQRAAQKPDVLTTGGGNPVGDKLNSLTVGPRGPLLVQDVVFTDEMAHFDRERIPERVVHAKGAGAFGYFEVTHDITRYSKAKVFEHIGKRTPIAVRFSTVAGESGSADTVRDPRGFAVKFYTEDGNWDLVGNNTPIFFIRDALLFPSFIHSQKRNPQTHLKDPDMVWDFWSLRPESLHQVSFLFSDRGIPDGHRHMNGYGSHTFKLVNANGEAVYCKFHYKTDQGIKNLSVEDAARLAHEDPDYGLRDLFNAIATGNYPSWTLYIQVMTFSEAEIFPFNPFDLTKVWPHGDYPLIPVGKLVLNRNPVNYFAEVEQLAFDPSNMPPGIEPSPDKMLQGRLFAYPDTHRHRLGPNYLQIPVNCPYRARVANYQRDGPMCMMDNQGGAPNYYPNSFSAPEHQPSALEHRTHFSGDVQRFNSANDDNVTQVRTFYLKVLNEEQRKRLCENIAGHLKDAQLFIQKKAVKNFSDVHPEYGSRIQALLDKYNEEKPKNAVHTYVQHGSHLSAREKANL

Row | Soret band of deoxy ferrous IDO1 on inhibitor binding (IDO1 [2]) | IC50 (IDO1 [1]) [µM] | Structure (SMILES) | reversibility of IDO1 inhibition (IDO1 [1]) | ligand efficiency (IDO1 [1]) | mode of inhibition (IDO1 [1]) | Catalase Fold (catalase) [fold] | cell viability (cytotoxicity) (HeLa cells) | impact of human serum protein binding on inhibitory activity (human serum protein) | effect of inhibitor on CO-bound ferrous IDO1 (IDO1 [2])
1 |  |  | Cl.NOCc1cccc(Cl)c1 [Compound 9, O-(3-Chlorobenzyl)hydroxylamine hydrochloride] | reversible | 0.93 | uncompetitive | > 320 | good cell viability | relatively unaffected | 
2 | 419–421 nm |  | COc1ccc(OC)c(CON)c1.Cl [Compound 40, O-(2,5-Dimethoxybenzyl)hydroxylamine hydrochloride] |  |  |  |  |  |  | inhibitor binding partially prevents CO binding to the heme iron
3 |  | 20 | NOCCc1ccccc1 [Compound 5, O-Phenethylhydroxylamine hydrochloride] |  |  |  |  |  |  | 
4 |  |  | NNc1ccccc1 [Ph-NH-NH2, phenylhydrazine] | did not see any signs of irreversible inhibition |  |  |  |  |  | 
5 | 419–421 nm |  | Cl.NOCc1ccc(I)cc1 [Compound 8, 4-(Iodobenzyl)hydroxylamine hydrochloride] | reversible | 0.93 | uncompetitive | > 300 | good cell viability | substantial reduction in inhibitory activity | inhibitor binding partially prevents CO binding to the heme iron

Row | Structure (SMILES) | Soret band of deoxy ferrous IDO1 on inhibitor binding (IDO1 [2]) | IC50 (IDO1 [1]) [µM] | reversibility of IDO1 inhibition (IDO1 [1]) | ligand efficiency (IDO1 [1]) | mode of inhibition (IDO1 [1]) | Catalase Fold (catalase) [fold] | cell viability (cytotoxicity) (HeLa cells) | impact of human serum protein binding on inhibitory activity (human serum protein) | effect of inhibitor on CO-bound ferrous IDO1 (IDO1 [2])
6 | NOCc1ccccc1 [Lead, O-benzylhydroxylamine] | 419–421 nm |  |  |  |  |  |  |  | inhibitor binding prevents CO binding to the heme iron
